Data as given in ChEMBL document CHEMBL5126615, “Identification of RAD51-BRCA2 Inhibitors Using N-Acylhydrazone-Based Dynamic Combinatorial Chemistry” (ACS Med Chem Lett, 2022).
Activity calls are given as the source filed them. No cut-off for these calls is given here.

Test system: not listed separately
Test: Inhibition of recombinant human His-tagged RAD51 expressed in Escherichia coli Rosetta2(DE3)pLysS cells/BRCA2 (unknown origin) by ELISA

| EC50 [µM] | SMILES |
| --- | --- |
| 18 | O=C(CCCOc1ccc(Cl)cc1Cl)N/N=C/c1ccc(C(F)(F)F)nc1 |
| 19 | O=C(CCCOc1ccc(Cl)cc1Cl)N/N=C/c1cccnc1F |
| 70 | CN(C)c1ccc(/C=N/NC(=O)[C@H](Cc2ccccc2)NC(=O)OC(C)(C)C)cc1 |
| 110 | COc1ccc(/C=N/NC(=O)CCCOc2ccc(Cl)cc2Cl)cn1 |
| 35 | O=C(CCCOc1ccc(Cl)cc1Cl)N/N=C/c1ccc2nccnc2c1 |
| 19 | O=C(CCCOc1ccc(Cl)cc1Cl)N/N=C/c1cccc(C(F)(F)F)c1 |
| 86 | O=C(CCCOc1ccc(Cl)cc1Cl)N/N=C/c1cc2c(s1)CCCC2 |
| 50 | O=C(CCCOc1ccc(Cl)cc1Cl)N/N=C/c1ccc2cc[nH]c2c1 |
| 60 | COc1cccc(/C=N/NC(=O)CCCOc2ccc(Cl)cc2Cl)c1 |
| 130 | Cc1cccc(Cn2nc(C(C)(C)C)cc2C(=O)N/N=C/c2ccc(N(C)C)cc2)c1 |

Target: T1, DNA repair protein RAD51 homolog 1 (Homo sapiens) (UniProt Q06609)
T1 sequence (whole entry): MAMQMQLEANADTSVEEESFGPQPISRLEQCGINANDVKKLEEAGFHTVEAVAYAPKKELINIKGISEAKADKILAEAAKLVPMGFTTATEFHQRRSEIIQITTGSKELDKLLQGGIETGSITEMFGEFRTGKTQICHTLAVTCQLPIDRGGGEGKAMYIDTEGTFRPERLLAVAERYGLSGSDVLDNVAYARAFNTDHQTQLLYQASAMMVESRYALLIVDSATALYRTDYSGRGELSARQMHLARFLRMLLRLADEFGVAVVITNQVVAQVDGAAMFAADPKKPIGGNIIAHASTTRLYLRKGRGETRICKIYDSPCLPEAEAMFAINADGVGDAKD
Test: Binding affinity to recombinant human His-tagged RAD51 expressed in Escherichia coli Rosetta2(DE3)pLysS cells by 19F-NMR assay

| Activity | SMILES |
| --- | --- |
| Active | O=C(CCCOc1ccc(Cl)cc1Cl)N/N=C/c1cccnc1F |
